Measured values as given in ChEMBL document CHEMBL4431300 (Medchemcomm, 2016).
≈ marks a conversion by molar mass, not a printed value. Calls of active or inactive are those of the source. No cut-off for these calls is given here.

How the values were obtained:
[1] = system: Chorioallantoic membrane; assay: (§1) Antiangiogenic activity in chicken fertilized egg chorioallantoic membrane assessed as avascular zone by measuring reduction in number of branching points at 55 ug/kg/day, iv administered as bolus dose on embryo development day 11 for 3 days by epifluorescence microscopic analysis relative to control; type: functional; details: Gallus gallus
[2] = Antiproliferative activity against immortalized human ECRF24 cells after 72 hrs at 37 degC by CellTiter-Glo luminescence assay; type: functional; details: ECRF24, 72 h
[3] = system: Chorioallantoic membrane; assay: (§2) Antiangiogenic activity in chicken fertilized egg chorioallantoic membrane assessed as inhibition of vascular sprout formation at 487 ug/kg/day, iv administered as single bolus dose 1 min post 5 Jcm'-2 light irradiation on embryo development day 11 measured 24 hrs post dose by epifluorescence microscopic analysis; type: functional, organism-based; details: Gallus gallus
[4] = system: Chorioallantoic membrane; assay: as §2, with “inhibition” for “inhibition of”, “97” for “487”; type: functional, organism-based; details: Gallus gallus
[5] = system: HEK293; assay: Antiproliferative activity against HEK293 cells after 72 hrs at 37 degC by CellTiter-Glo luminescence assay; type: cell-based; details: Homo sapiens, HEK293, 72 h
[6] = system: A2780; assay: Antitumor activity against human A2780 cells implanted in chicken fertilized egg chorioallantoic membrane assessed as tumor growth inhibition at 487 ug/kg/day, iv administered as bolus dose on embryo development day 11 for 3 days measured up to 8 days post treatment relative to control; type: functional; details: Gallus gallus, read-out: TGI
[7] = species on record: Homo sapiens; assay: Antimigratory activity against human ECRF24 cells assessed as wound closure at 6 to 50 uM after 7 hrs by wound healing assay; type: functional, cell-based
[8] = Antiproliferative activity against human A2780cis cells after 72 hrs at 37 degC by MTT assay; type: functional, cell-based
[9] = system: A2780; assay: Antiproliferative activity against human A2780 cells after 72 hrs at 37 degC by MTT assay; type: functional, cell-based; details: A2780, 72 h
[10] = system: Chorioallantoic membrane; assay: as §1, with “49” for “55”; type: functional; details: Gallus gallus
[11] = system: Chorioallantoic membrane; assay: as §1, with “20” for “55”; type: functional; details: Gallus gallus
[12] = Antiproliferative activity against embryonic stem cells in intact mouse embryoid bodies; type: functional, cell-based
[13] = system: A2780; assay: Antitumor activity against human A2780 cells implanted in chicken fertilized egg chorioallantoic membrane assessed as tumor growth inhibition at 435 ug/kg/day, iv administered as bolus dose on embryo development day 11 for 3 days measured up to 8 days post treatment relative to control; type: functional; details: Gallus gallus, read-out: TGI
[14] = system: Chorioallantoic membrane; assay: as §2, with “64” for “487”; type: functional, organism-based; details: Gallus gallus
[15] = system: Chorioallantoic membrane; assay: as §1, with “36” for “55”; type: functional; details: Gallus gallus
[16] = system: Chorioallantoic membrane; assay: as §2, with “435” for “487”; type: functional, organism-based; details: Gallus gallus
[17] = system: A2780; assay: Antitumor activity against human A2780 cells implanted in chicken fertilized egg chorioallantoic membrane assessed as tumor growth inhibition at 64 ug/kg/day, iv administered as bolus dose on embryo development day 11 for 3 days measured up to 8 days post treatment relative to control; type: functional; details: Gallus gallus, read-out: TGI

| SMILES | inhibition in vivo at 0.055 mg/kg/day [1] | IC50 [2] | inhibition [3] | inhibition [4] | IC50 [5] | inhibition in vivo at 0.487 mg/kg/day [6] | Activity [7] | IC50 [8] | IC50 [9] | inhibition in vivo at 0.049 mg/kg/day [10] | inhibition in vivo at 0.02 mg/kg/day [11] | IC50 [12] | inhibition in vivo at 0.435 mg/kg/day [13] | inhibition [14] | inhibition in vivo at 0.036 mg/kg/day [15] | inhibition [16] | inhibition in vivo at 0.064 mg/kg/day [17] |
| --- | --- | --- | --- | --- | --- | --- | --- | --- | --- | --- | --- | --- | --- | --- | --- | --- | --- |
| O=C(CCCc1ccc(N(CCCl)CCCl)cc1)OCCC(F)(F)C(F)(F)C(F)(F)C(F)(F)C(F)(F)C(F)(F)C(F)(F)C(F)(F)C(F)(F)C(F)(F)F | 59% | 66 µM | inactive | inactive | > 200 µM | 70% | inactive | > 200 µM | > 200 µM | – | – | – | – | – | – | – | – |
| O=C(CCCc1ccc(N(CCCl)CCCl)cc1)OCCC(F)(F)C(F)(F)C(F)(F)C(F)(F)C(F)(F)C(F)(F)C(F)(F)C(F)(F)F | – | 52 µM | – | – | 57 µM | – | – | 25 µM | 38 µM | 29% | – | – | – | – | – | – | – |
| O=C(O)CCCc1ccc(N(CCCl)CCCl)cc1 [CHLORAMBUCIL] | – | 8 µM | – | – | 25 µM | – | – | 43 µM | 12 µM | – | 33% | 1.25 µg/mL (≈ 4.11 µM) | – | – | – | – | – |
| CCCCCCCCCCCCCCCCCCOC(=O)CCCc1ccc(N(CCCl)CCCl)cc1 | – | 89 µM | – | – | > 200 µM | – | inactive | > 200 µM | > 200 µM | – | – | – | 49.5% | Active | 20% | inactive | 53% |
